Experimental data taken from article PMC9518283 (Journal of Enzyme Inhibition and Medicinal Chemistry, 2022).

Tests used:
[1] = biological target: T1, hMAO-A (Homo sapiens, UniProt P21397); test: hMAO-A inhibition, kynuramine substrate, HPLC-MS; format: biochemical; details: residual enzyme activity; for % of MAO-A activity (1 µM): compound at 1 µM; for % of MAO-A activity (10 µM): compound at 10 µM
T1 construct: purchased Sigma-Aldrich (St. Louis, MO, USA)
T1 sequence (P21397 1-527): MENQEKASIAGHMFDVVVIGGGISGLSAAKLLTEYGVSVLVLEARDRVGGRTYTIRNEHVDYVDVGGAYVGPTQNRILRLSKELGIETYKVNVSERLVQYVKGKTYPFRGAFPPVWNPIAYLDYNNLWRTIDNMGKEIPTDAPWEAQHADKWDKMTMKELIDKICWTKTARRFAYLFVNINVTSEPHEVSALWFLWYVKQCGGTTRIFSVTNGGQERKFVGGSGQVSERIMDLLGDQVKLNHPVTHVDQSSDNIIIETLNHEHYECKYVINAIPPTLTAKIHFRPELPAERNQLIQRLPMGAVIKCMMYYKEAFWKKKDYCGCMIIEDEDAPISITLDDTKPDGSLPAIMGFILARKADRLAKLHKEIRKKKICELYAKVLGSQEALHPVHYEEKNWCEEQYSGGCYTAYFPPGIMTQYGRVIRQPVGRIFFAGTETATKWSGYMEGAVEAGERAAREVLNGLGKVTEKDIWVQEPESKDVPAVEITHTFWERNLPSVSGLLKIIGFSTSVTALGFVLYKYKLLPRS
Description: (§1) The hMAO-A and hMAO-B enzymes were purchased from Sigma-Aldrich (St. Louis, MO, USA). […] The mixture was pre-incubated at 37 °C for 5 min and subsequently substrate kynuramine was added to the final concentration of 60 µM in the case of hMAO-A and 30 µM in the case of hMAO-B. The final volume of reaction mixture was 0.1 mL. The whole reaction mixture was incubated at 37 °C for 30 min. The reaction was stopped by the addition of 200 µL acetonitrile/methanol mixture (ratio 1:1) and cooling down to 0 °C. […] Eluents: (A) 0.1% formic acid in water; (B) 0.1% formic acid in acetonitrile.

[2] = biological target: T2, hMAO-B (Homo sapiens, UniProt P27338); test: biochemical; details: residual enzyme activity; for % of MAO-B activity (1 µM): compound at 1 µM; for % of MAO-B activity (10 µM): compound at 10 µM
T2 construct: purchased Sigma-Aldrich (St. Louis, MO, USA)
T2 sequence (P27338 1-520): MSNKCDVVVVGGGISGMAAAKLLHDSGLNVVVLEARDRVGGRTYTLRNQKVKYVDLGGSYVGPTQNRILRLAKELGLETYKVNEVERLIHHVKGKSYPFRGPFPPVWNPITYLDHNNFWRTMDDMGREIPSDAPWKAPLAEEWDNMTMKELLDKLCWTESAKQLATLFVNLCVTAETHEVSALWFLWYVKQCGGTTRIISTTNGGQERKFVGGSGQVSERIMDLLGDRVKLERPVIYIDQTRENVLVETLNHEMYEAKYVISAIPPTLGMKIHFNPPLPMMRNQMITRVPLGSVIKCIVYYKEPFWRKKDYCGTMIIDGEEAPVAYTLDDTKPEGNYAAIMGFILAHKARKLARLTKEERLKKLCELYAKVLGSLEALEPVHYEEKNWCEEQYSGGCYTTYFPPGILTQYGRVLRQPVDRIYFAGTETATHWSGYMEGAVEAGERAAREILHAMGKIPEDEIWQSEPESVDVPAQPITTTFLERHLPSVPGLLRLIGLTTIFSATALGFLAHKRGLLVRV
Description: as §1

[3] = biological target: human butyrylcholinesterase (hBChE; EC 3.1.1.8) (Homo sapiens, UniProt P06276); test: biochemical; details: mean of at least three experiments; read-out: IC50 hBChE ± STD
Sequence of human butyrylcholinesterase (hBChE; EC 3.1.1.8) (P06276 29-602): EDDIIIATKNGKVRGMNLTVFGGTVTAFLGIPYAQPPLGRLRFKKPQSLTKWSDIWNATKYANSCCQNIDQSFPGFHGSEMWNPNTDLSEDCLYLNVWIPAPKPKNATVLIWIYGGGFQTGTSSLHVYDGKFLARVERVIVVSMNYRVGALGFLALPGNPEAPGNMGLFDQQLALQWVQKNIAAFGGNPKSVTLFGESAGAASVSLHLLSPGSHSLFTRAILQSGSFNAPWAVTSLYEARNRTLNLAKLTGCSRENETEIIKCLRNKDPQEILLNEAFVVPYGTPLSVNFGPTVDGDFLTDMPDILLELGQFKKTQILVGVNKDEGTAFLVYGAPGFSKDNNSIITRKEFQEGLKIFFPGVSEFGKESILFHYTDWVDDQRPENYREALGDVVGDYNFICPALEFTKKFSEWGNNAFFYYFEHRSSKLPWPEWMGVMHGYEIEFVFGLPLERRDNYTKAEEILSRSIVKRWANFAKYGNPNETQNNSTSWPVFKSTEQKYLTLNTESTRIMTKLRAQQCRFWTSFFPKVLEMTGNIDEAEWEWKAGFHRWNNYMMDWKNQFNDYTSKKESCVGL
Description: (§2) For that purpose, Ellman’s colorimetric assay was used[35].
(§3) The catalytic activity of both cholinesterases was determined by standard Ellman’s method adapted for 96-well plates. All tested inhibitors were freshly prepared in 50% DMSO/50% methanol at 10 mM concentration as stock solutions and then diluted in 0.1 M phosphate buffer, pH 7.4. […] The mixture was pre-incubated at 37 °C for 15 min and subsequently substrate (acetylthiocholine iodide or butyrylthiocholine iodide) was added to the final concentration of 1000 μM. The final volume of the reaction was 100 μL. The catalytic activity was evaluated as the amount of product (%) formed by enzyme after 10 min of incubation at 37 °C. The IC50 values from three independent experiments for each inhibitor concentration in triplicate were calculated using non-linear regression curve analysis in Prism version 7 Software (GraphPad Software Inc., San Diego, CA).

[4] = biological target: human AChE (hAChE; EC 3.1.1.7) (Homo sapiens, UniProt P22303); test: biochemical; details: for IC50: mean of at least three experiments, read-out: IC50 hAChE ± STD; for SI (hBChE/hAChE): ratio IC50(hBChE)/IC50(hAChE)
Sequence of human AChE (hAChE; EC 3.1.1.7) (P22303 32-614): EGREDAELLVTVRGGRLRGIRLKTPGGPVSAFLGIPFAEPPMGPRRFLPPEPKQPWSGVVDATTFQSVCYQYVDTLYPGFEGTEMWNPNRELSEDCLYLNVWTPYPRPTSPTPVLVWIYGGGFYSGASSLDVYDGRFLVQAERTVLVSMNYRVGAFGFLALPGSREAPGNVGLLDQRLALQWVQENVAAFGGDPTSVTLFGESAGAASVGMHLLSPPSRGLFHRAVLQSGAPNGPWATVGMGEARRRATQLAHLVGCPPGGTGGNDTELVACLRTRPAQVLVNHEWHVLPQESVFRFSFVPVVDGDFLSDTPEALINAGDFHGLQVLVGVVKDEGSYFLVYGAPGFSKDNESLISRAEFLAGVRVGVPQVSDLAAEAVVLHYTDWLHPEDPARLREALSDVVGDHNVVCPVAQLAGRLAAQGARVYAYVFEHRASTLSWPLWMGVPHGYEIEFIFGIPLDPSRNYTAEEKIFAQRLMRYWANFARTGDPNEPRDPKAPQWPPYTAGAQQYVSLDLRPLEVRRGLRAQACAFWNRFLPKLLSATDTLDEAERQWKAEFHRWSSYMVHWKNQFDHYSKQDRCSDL
Description: as §2, §3

| Compound | % of MAO-A activity (1 µM) [1] | % of MAO-A activity (10 µM) [1] | % of MAO-B activity (1 µM) [2] | % of MAO-B activity (10 µM) [2] | IC50 [3] | IC50 [4] | SI (hBChE/hAChE) [4] |
| --- | --- | --- | --- | --- | --- | --- | --- |
| C=CCN(CC=C)c1c2c(nc3ccccc13)CCCC2.Cl [Compound 1, N,N-Di(prop-2-en-1-yl)-1,2,3,4-tetrahydroacridin-9-amine hydrochloride] | 95% | 85% | 89% | 62% | 716 ± 35 nM | 493 ± 12 nM | 1.45 |
| C=CCNc1c2c(nc3ccccc13)CCCC2.Cl [Compound 2, N-(prop-2-en-1-yl)-1,2,3,4-tetrahydroacridin-9-amine hydrochloride] | 78% | 58% | 48% | 72% | 488 ± 19 nM | 303 ± 4 nM | 1.61 |
| C=CCNc1c2c(nc3cc(Cl)ccc13)CCCC2.Cl [Compound 3, 6-Chloro-N-(prop-2-en-1-yl)-1,2,3,4-tetrahydroacridin-9-amine hydrochloride] | 76% | 73% | 71% | 64% | 3220 ± 129 nM | 70 ± 1 nM | – |
| C=CCN(CC=C)c1c2c(nc3ccc(OC)cc13)CCCC2.Cl [Compound 4, 7-Methoxy-N,N-di(prop-2-en-1-yl)-1,2,3,4-tetrahydroacridin-9-amine hydrochloride] | 103% | 107% | 83% | 61% | 8760 ± 292 nM | 3690 ± 113 nM | 2.37 |
| C=CCNc1c2c(nc3ccc(OC)cc13)CCCC2.Cl [Compound 5, 7-Methoxy-N-(prop-2-en-1-yl)-1,2,3,4-tetrahydroacridin-9-amine hydrochloride] | 97% | 62% | 82% | 70% | 12500 ± 387 nM | 2270 ± 62 nM | 5.52 |
| C=CCN(CC=C)c1c2c(nc3ccc(Oc4ccccc4)cc13)CCCC2.Cl [Compound 6, 7-Phenoxy-N,N-di(prop-2-en-1-yl)-1,2,3,4-tetrahydroacridin-9-amine hydrochloride] | 76% | 78% | 16% | 4% | 13200 ± 408 nM | 9540 ± 138 nM | 1.38 |
| C#CCN(CC#C)c1c2c(nc3ccccc13)CCCC2.Cl [Compound 8, N,N-Di(prop-2-yn-1-yl)-1,2,3,4-tetrahydroacridin-9-amine hydrochloride] | 103% | 111% | 59% | 47% | 937 ± 43 nM | 186 ± 5 nM | 5.04 |
| C#CCN(CC#C)c1c2c(nc3cc(Cl)ccc13)CCCC2 [Compound 10] | 92% | 92% | 106% | 141% | 10900 ± 1020 nM | 105 ± 4 nM | 103.52 |
| C#CCN(CC#C)c1c2c(nc3ccc(OC)cc13)CCCC2.Cl [Compound 12, 7-Methoxy-N,N-di(prop-2-yn-1-yl)-1,2,3,4-tetrahydroacridin-9-amine hydrochloride] | 123% | 114% | 63% | 45% | 7970 ± 300 nM | 5120 ± 184 nM | 1.56 |
| C#CCNc1c2c(nc3ccc(OC)cc13)CCCC2.Cl [Compound 13, 7-Methoxy-N-(prop-2-yn-1-yl)-1,2,3,4-tetrahydroacridin-9-amine hydrochloride] | 96% | 82% | 74% | 62% | 3760 ± 210 nM | 1360 ± 39 nM | 2.75 |
| C#CCN(CC#C)c1c2c(nc3ccc(Oc4ccccc4)cc13)CCCC2.Cl [Compound 14, 7-Phenoxy-N,N-di(prop-2-yn-1-yl)-1,2,3,4-tetrahydroacridin-9-amine hydrochloride] | 93% | 47% | 73% | 14% | 12200 ± 713 nM | 2880 ± 84 nM | 4.23 |
| C#CCN(CC#C)CCCNc1c2c(nc3cc(Cl)ccc13)CCCC2.Cl.Cl [Compound 22, N'-(6-Chloro-1,2,3,4-tetrahydroacridin-9-yl)-N,N-di(prop-2-yn-1-yl)propane-1,3-diamine dihydrochloride] | 107% | 102% | 87% | 50% | 170 ± 13 nM | 61 ± 2 nM | 2.79 |
| C#CCN(CC#C)CCCNc1c2c(nc3ccc(OC)cc13)CCCC2.Cl.Cl [Compound 24, N-(7-Methoxy-1,2,3,4-tetrahydroacridin-9-yl)-N',N'-di(prop-2-yn-1-yl)-propane-1,3-diamine dihydrochloride] | 60% | 70% | 169% | 82% | 1040 ± 60 nM | 1950 ± 46 nM | 0.53 |
| C#CCNc1ccnc2cc(Cl)ccc12.Cl [Compound 28, 7-Chloro-N-(prop-2-yn-1-yl)quinolin-4-amine hydrochloride] | 39% | 31% | 150% | 61% | – | 8720 ± 242 nM | – |
